Results taken from US12390470B2, “1-methylxanthine-based bioactive composition and method of use thereof” (Ingenious Ingredients, LP, priority 2021, dated 2025).

Assays:
[1] = tested on: participant; test: Wakefulness by Visual Analog Scale; type: in vivo, human; settings: Person two
Description: One participant ingested a non-energetic placebo (maltodextrin) followed by 200 mg dose of 1-methylxanthine (1-MX) one week later, orally with 8 fluid ounces of cold tap water. Wakefulness was measured by Visual Analog Scale (VAS) at baseline, 30, 60, 90, 120 and 180 minutes after ingestion.

[2] = tested on: male Swiss Albino mice; test: Treadmill endurance test; type: in vivo
Description: (§1) Twenty-four 8-week-old male Swiss Albino mice were housed in an animal room at a constant temperature (22±3° C.) and humidity (30%-70%) under a 12:12 h light-dark cycle with standard laboratory diet (Purina 5L79, Rat and Mouse 18% protein; PMI Nutrition International, Brentwood, MO, USA). Distilled water was provided ad libitum. All animal experiments were reviewed and approved by the Institutional Animal Ethical Committee (IAEC) of Radiant Research Services Pvt. Ltd (Bangalore, India). All research was conducted in accordance with the guidelines of the committee for the purpose of control and supervision of experiments on animals.
After one week of acclimation, the animals were randomly divided by body weight into three groups (n=8 per group in each test) for oral treatment once a day, at approximately same time each day (±1 hour), for 28 consecutive days: (1) vehicle control or (2) 1-methylxanthine or (3) 1-methylxanthine plus paraxanthine. The dose administered to the mice was calculated using US Food and Drug Administration for human equivalence doses (HED), assuming a human weight of 60 kg. The following HED was used in this study: 100 mg 1-methylxanthine (Ingenious Ingredients, L.P Lewisville, TX, USA; mouse dose: 20.5 mg/kg bw/day), or 100 mg 1-methylxanthine (Ingenious Ingredients, L.P Lewisville, TX, USA; mouse dose: 20.5 mg/kg bw/day) plus 100 mg paraxanthine (ENFINITY™, Ingenious Ingredients, L.P Lewisville, TX, USA; mouse dose: 20.5 mg/kg bw/day). 0.5% Carboxy Methyl Cellulose sodium was used as vehicle and the test item formulations were prepared daily. Dosing was conducted via oral gavage using disposable polypropylene syringes with sterilized stainless steel gavage tubes. Food intake was monitored daily while water intake was ad libitum. BW was recorded weekly. […]
On 28th day of each respective treatment, all animals were subjected to a muscle endurance test. […] Distance traveled (cm) was measured as a marker of exercise performance.

[3] = tested on: Swiss Albino Wistar rats; test: Morris water maze test in young and old rats; type: in vivo; settings: HED 100 mg 1-MX (+25 mg PX)
Description: as §1, with “young (6-8 Week) and twenty-four old (14-16 Months)” for “8-week-old male”, “Wistar rats” for “mice”
After one week of acclimation, the animals were randomly divided by body weight and age into six groups (n=8 per group in each test) for oral treatment once a day, at approximately same time each day (±1 hour), for 10 consecutive days: (1) vehicle control or (2) 1-methylxanthine or (3) 1-methylxanthine plus paraxanthine. The dose administered to the rat was calculated using US Food and Drug Administration for human equivalence doses (HED), assuming a human weight of 60 kg. […] Food intake was monitored daily while water intake was ad libitum. […] Body weight was recorded weekly. […]

Cn1c(=O)[nH]c2nc[nH]c2c1=O [1-methylxanthine, 1-Methyl-3H-purine-2,6-dione]
Wakefulness (VAS) MEAN [1]: 69.0
Wakefulness (Visual Analog Scale) ([1]; 30 min): 65
Wakefulness (Visual Analog Scale) ([1]; 60 min): 65
Wakefulness (Visual Analog Scale) ([1]; 90 min): 65
Wakefulness (Visual Analog Scale) ([1]; 120 min): 75
Wakefulness (Visual Analog Scale) ([1]; 180 min): 75
Wakefulness (Visual Analog Scale) ([1]; time 0, 200 mg oral): 60
Distance travelled on treadmill ([2]; baseline): 269.6±33.0 cm
changes in treadmill performance greater than control ([2]; baseline to day 28): 10.0%
Distance travelled on treadmill ([2]; day 28, oral 20.5 mg/kg bw/day each, 28 days): 1,641.3±74.6 cm
Escape latency, Morris water maze ([3]; old rats): 41.71 ± 1.81 s
Escape latency, Morris water maze ([3]; young rats): 32.18 ± 1.10 s
